# Values of other authors, collected in US20170027865A1, “Dry Pharmaceutical Compositions for Topical Delivery of Oral Medications, Nasal Delivery and to Treat Ear Disorders” (CMPD LICENSING LLC, priority 2013, published 2017).
# Tests used:
# [1] = system: Paracoccidioides brasiliensis
# Shigella sonnei = conditions: Gram: neg
# Streptococcus agalactiae = conditions: Gram: pos
# [2] = system: Haemophilus parainfluenzae; conditions: Gram: neg
# Enterobacter sakazakii = conditions: Gram: neg
# Enterobacter cloacae = conditions: Gram: neg
# Serratia marcescens = conditions: Gram: neg
# Neisseria gonorrhoeae = conditions: Gram: neg
# Haemophilus ducreyi = conditions: Gram: neg
# Klebsiella oxytoca = conditions: Gram: neg
# Peptostreptococcus = conditions: Gram: pos
# Enterococcus faecalis = conditions: Gram: pos
# [3] = system: Corynebacterium urealyticum; conditions: Gram: pos
# Haemophilus influenzae = conditions: Gram: neg
# Bacteroides fragilis = conditions: Gram: anaer
# [4] = system: Viridans group streptococci; conditions: Gram: pos
# Diphtheroids = conditions: Gram: pos
# Citrobacter diversus = conditions: Gram: neg
# Corynebacterium jeikeium = conditions: Gram: pos
# Bartonella bacilliformis = conditions: Gram: neg
# Campylobacter jejuni = conditions: Gram: neg
# Shigella dysenteriae = conditions: Gram: neg
# Moraxella catarrhalis = conditions: Gram: neg
# Chlamydia trachomatis = conditions: Gram: n/a
# Streptococcus pyogenes = conditions: Gram: pos
# [5] = system: Klebsiella (Calymmatobacterium) granulomatis; conditions: Gram: neg
# Providencia rettgeri = conditions: Gram: neg
# Clostridium difficile = conditions: Gram: anaer
# [6] = system: Methicillin Resistant Staph aureus (MRSA); conditions: Gram: pos
# Bordetella pertussis = conditions: Gram: neg
# Providencia stuartii = conditions: Gram: neg
# Pseudomonas fluorescens = conditions: Gram: neg
# Proteus vulgaris = conditions: Gram: neg
# Salmonella typhi = conditions: Gram: neg
# Morganella morganii = conditions: Gram: neg
# Klebsiella pneumoniae = conditions: Gram: neg
# Mycoplasma pneumoniae = conditions: Gram: n/a
# Enterobacter aerogenes = conditions: Gram: neg
# Shigella boydii = conditions: Gram: neg
# Shigella flexneri = conditions: Gram: neg
# Acinetobacter baumannii = conditions: Gram: neg
# Vibrio cholerae = conditions: Gram: neg
# [7] = system: Acinetobacter calcoaceticus; conditions: Gram: neg
# Chlamydia pneumoniae = conditions: Gram: n/a
# [8] = system: Staphylococcus epidermidis; conditions: Gram: pos
# Escherichia coli = conditions: Gram: neg
# [9] = system: Staphylococcus aureus (MSSA); conditions: Gram: pos
# Citrobacter freundii = conditions: Gram: neg
# Acinetobacter lwoffii = conditions: Gram: neg
# Neisseria meningitidis = conditions: Gram: neg
# Proteus mirabilis = conditions: Gram: neg
# Pseudomonas aeruginosa = conditions: Gram: neg
# Streptococcus pneumoniae = conditions: Gram: pos
compound,measurement,setting,value
"C[C@@H]1[C@H](O)[C@@H](C)/C=C/C=C/C=C/C=C/C=C/C=C/C=C/[C@H](O[C@@H]2O[C@H](C)[C@@H](O)[C@H](N)[C@@H]2O)C[C@@H]2O[C@](O)(C[C@@H](O)C[C@@H](O)[C@H](O)CC[C@@H](O)C[C@@H](O)CC(=O)O[C@H]1C)C[C@H](O)[C@H]2C(=O)O [Amphotericin, amphotericin B]",Expected coverage,Aspergillus fumigatus,yes
same,Expected coverage,Candida species,yes
same,Expected coverage,Cryptococcus neoformans,yes
same,Expected coverage,Aspergillus niger,yes
same,Expected coverage,Coccidioides immitis,yes
same,Expected coverage,Aspergillus flavus,yes
same,Expected coverage,Leishmania donovani,yes
same,Expected coverage,Leishmania infantum,yes
same,Expected coverage,Aspergillus terreus,yes
same,Expected coverage,[1],yes
same,Expected coverage,Histoplasma capsulatum,yes
same,Expected coverage,Blastomyces dermatitidis,yes
"OC(Cn1cncn1)(Cn1cncn1)c1ccc(F)cc1F [Fluconazole, fluconazole]",Expected coverage,Aspergillus fumigatus,yes
same,Expected coverage,Candida species,yes
same,Expected coverage,Cryptococcus neoformans,yes
same,Expected coverage,Coccidioides immitis,yes
same,Expected coverage,Aspergillus flavus,yes
same,Expected coverage,Histoplasma capsulatum,yes
same,Expected coverage,Blastomyces dermatitidis,yes
"CN[C@H](CC(C)C)C(=O)N[C@H]1C(=O)N[C@@H](CC(N)=O)C(=O)N[C@H]2C(=O)N[C@H]3C(=O)N[C@H](C(=O)N[C@H](C(=O)O)c4cc(O)cc(O)c4-c4cc3ccc4O)[C@H](O)c3ccc(c(Cl)c3)Oc3cc2cc(c3O[C@@H]2O[C@H](CO)[C@@H](O)[C@H](O)[C@H]2O[C@H]2C[C@](C)(N)[C@H](O)[C@H](C)O2)Oc2ccc(cc2Cl)[C@H]1O [Vancomycin, vancomycin]",Expected coverage,Shigella sonnei,no
same,Expected coverage,Streptococcus agalactiae,yes
same,Expected coverage,[2],no
same,Expected coverage,Enterobacter sakazakii,no
same,Expected coverage,Enterobacter cloacae,no
same,Expected coverage,Francisella tularensis,no
same,Expected coverage,Serratia marcescens,no
same,Expected coverage,Brucella species,no
same,Expected coverage,Neisseria gonorrhoeae,no
same,Expected coverage,Haemophilus ducreyi,no
same,Expected coverage,Klebsiella oxytoca,no
same,Expected coverage,Peptostreptococcus,yes
same,Expected coverage,Enterococcus faecalis,yes
same,Expected coverage,[3],yes
same,Expected coverage,Haemophilus influenzae,no
same,Expected coverage,Bacteroides fragilis,no
same,Expected coverage,[4],yes
same,Expected coverage,Diphtheroids,yes
same,Expected coverage,Citrobacter diversus,no
same,Expected coverage,Corynebacterium jeikeium,yes
same,Expected coverage,Bartonella bacilliformis,no
same,Expected coverage,Campylobacter jejuni,no
same,Expected coverage,Shigella dysenteriae,no
same,Expected coverage,Moraxella catarrhalis,no
same,Expected coverage,Chlamydia trachomatis,no
same,Expected coverage,Streptococcus pyogenes,yes
same,Expected coverage,Clostridium perfringens,no
same,Expected coverage,[5],no
same,Expected coverage,Providencia rettgeri,no
same,Expected coverage,Legionella pneumophila,no
same,Expected coverage,Rickettsiae,no
same,Expected coverage,Clostridium difficile,yes
same,Expected coverage,[6],yes
same,Expected coverage,Bordetella pertussis,no
same,Expected coverage,Providencia stuartii,no
same,Expected coverage,Pseudomonas fluorescens,no
same,Expected coverage,Proteus vulgaris,no
same,Expected coverage,Salmonella typhi,no
same,Expected coverage,Morganella morganii,no
same,Expected coverage,Yersinia pestis,no
same,Expected coverage,Klebsiella pneumoniae,no
same,Expected coverage,Chlamydia psittaci,no
same,Expected coverage,Mycoplasma pneumoniae,no
same,Expected coverage,Enterobacter aerogenes,no
same,Expected coverage,Shigella boydii,no
same,Expected coverage,Shigella flexneri,no
same,Expected coverage,Acinetobacter baumannii,no
same,Expected coverage,Vibrio cholerae,no
same,Expected coverage,[7],no
same,Expected coverage,Chlamydia pneumoniae,no
same,Expected coverage,[8],yes
same,Expected coverage,Escherichia coli,no
same,Expected coverage,[9],yes
same,Expected coverage,Citrobacter freundii,no
same,Expected coverage,Acinetobacter lwoffii,no
same,Expected coverage,Neisseria meningitidis,no
same,Expected coverage,Proteus mirabilis,no
same,Expected coverage,Pseudomonas aeruginosa,no
same,Expected coverage,Streptococcus pneumoniae,yes
"C[C@@H](c1ncncc1F)[C@](O)(Cn1cncn1)c1ccc(F)cc1F [Voriconazole, voriconazole]",Expected coverage,Aspergillus fumigatus,yes
same,Expected coverage,Candida species,yes
same,Expected coverage,Aspergillus niger,yes
same,Expected coverage,Aspergillus flavus,yes
same,Expected coverage,Aspergillus terreus,yes
same,Expected coverage,Fusarium species,yes
same,Expected coverage,Scedosporium apiospermum,yes
